# EPA's ToxValDB 9.5 (doi:10.2903/j.efsa.2010.1904)
# Columns and labels:
# Daphnia magna = conditions: chronic/long-term; duration: 21 days
# Oryctolagus sp. = conditions: reproduction developmental; reproduction
# Anas platyrhynchos = conditions: oral, mortality
# Apis mellifera = conditions: acute; duration: 48 hours; oral; unspecified; mortality
# Canidae = conditions: chronic; duration: 52 weeks; oral; Dog Other
# Ictalurus punctatus = conditions: acute; duration: 96 hours; mortality
# Oncorhynchus mykiss = conditions: chronic/long-term; duration: 21 days
structure (smiles),measurement,setting,value
N#Cc1sc2c(=O)c3ccccc3c(=O)c=2sc1C#N [Dithianon],LC50,"Colinus virginianus; acute, oral, diet, mortality",> 1200 mg/kg-day
same,LD50,"Colinus virginianus; acute, oral, mortality",309 mg/kg-day
same,NOEC,"Colinus virginianus; reproduction developmental, reproduction",22.8 mg/kg-day
same,LC50,"Tagia sp.; acute, duration: 14 days, mortality",578 mg/kg
same,NOEC,"Tagia sp.; chronic/long-term, duration: 56 days, reproduction",48 mg/kg
same,NOEC,Daphnia magna,0.0595 mg/L
same,NOAEL,Oryctolagus sp.,25 mg/kg-day
same,LD50,"Anas platyrhynchos; acute, unspecified",> 2000 mg/kg-day
same,LC50,"Anas platyrhynchos; short-term, feed",> 790 mg/kg-day
same,LD50,Apis mellifera,> 25.4 µg/piece
same,NOAEL,Canidae,1.6 mg/kg-day
same,LC50,Ictalurus punctatus,0.0143 µg/mL
same,LD50,"Rattus norvegicus; acute, oral, mortality",< 500 mg/kg-day
same,NOAEL,"Rattus norvegicus; chronic, histopathology: neoplastic",1 mg/kg-day
same,NOAEL,"Rattus norvegicus; short-term, duration: 7 days, oral, histopathology: nonneoplastic",12 mg/kg-day
same,NOAEL,"Rattus norvegicus; short-term, duration: 28 days, oral, histopathology: nonneoplastic",12 mg/kg-day
same,NOEC,Oncorhynchus mykiss,0.00046 mg/L
